Experimental data taken from US20110190503A1, “Thiazolopyridin-2-yloxy-phenyl and thiazolopyrazin-2-yloxy-phenyl amines as modulators of leukotriene A4 hydrolase” (Janssen Pharmaceutical NV, priority 2008, published 2011).

Key:
[1] = target: T1, recombinant human LTA4 hydrolase (rhLTA4H) (Homo sapiens, UniProt P09960); assay: Recombinant human LTA4 hydrolase assay for LTA4 hydrolase inhibitor activity; format: biochemical; conditions: rhLTA4H, LTA4 substrate, LTB4 by immunoassay; single determination or average; read-out: IC50
T1 construct: made in house; host or cells: Spodoptera frugiperda (Sf-9) cells, recombinant baculovirus (pFastBac1)
T1 sequence (P09960 1-611): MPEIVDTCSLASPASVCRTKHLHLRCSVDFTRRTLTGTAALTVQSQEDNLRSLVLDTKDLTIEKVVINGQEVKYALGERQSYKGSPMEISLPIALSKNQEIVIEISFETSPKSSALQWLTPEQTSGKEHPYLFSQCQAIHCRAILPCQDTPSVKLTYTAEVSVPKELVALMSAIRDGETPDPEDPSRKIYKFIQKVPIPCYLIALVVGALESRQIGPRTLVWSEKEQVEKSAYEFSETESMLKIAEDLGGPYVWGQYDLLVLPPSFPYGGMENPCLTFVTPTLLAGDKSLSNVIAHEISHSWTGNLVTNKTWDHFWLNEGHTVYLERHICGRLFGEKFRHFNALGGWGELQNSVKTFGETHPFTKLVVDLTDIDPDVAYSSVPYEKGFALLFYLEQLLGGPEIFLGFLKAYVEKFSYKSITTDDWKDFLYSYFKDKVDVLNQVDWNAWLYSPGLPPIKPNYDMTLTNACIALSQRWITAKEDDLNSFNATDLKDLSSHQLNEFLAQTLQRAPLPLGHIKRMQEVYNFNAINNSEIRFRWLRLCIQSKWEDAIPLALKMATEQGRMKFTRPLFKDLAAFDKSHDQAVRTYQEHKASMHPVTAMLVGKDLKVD
Method in brief: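 Recombinant human LTA4H from baculovirus-infected Sf-9 cells (10 ng) pre-incubated 10 min at rt with compound (10% DMSO in dilutions), then reacted with free-acid LTA4 for 30 min at rt. LTB4 measured by ELISA; IC50 by nonlinear regression. Values are single determinations or averages.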

[2] = tested on: LTB4 production by calcium ionophore-stimulated murine blood; assay: LTB4 production by calcium ionophore-stimulated murine blood for LTA4H inhibitor activity; format: cell-based, CD-1 mice; conditions: Mus musculus; murine blood diluted 1 in 15, calcium ionophore A23187, LTB4 by immunoassay; read-out: IC50
Method in brief: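 Heparinized CD-1 mouse blood pre-incubated with compound 15 min at 37° C, then stimulated with calcium ionophore A23187 (7 μg/mL final) for 30 min. LTB4 in supernatant measured by enzyme immunoassay; values are single or averaged determinations, with SD for n≥3.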

With `O=C(O)C1CCN(Cc2ccc(Oc3nc4ncccc4s3)cc2)CC1` [Example 131, 1-[4-([1,3]Thiazolo[4,5-b]pyridin-2-yloxy)benzyl]piperidine-4-carboxylic acid] as the compound, how does the IC50 [1] read?
Its IC50 is 7.8 nM.

And the IC50 [2]?
Its IC50 is 1070 nM.

`c1cnc(OC2CCN(Cc3ccc(Oc4nc5ncccc5s4)cc3)CC2)nc1` [Example 99, 2-(4-{[4-(Pyrimidin-2-yloxy)piperidin-1-yl]methyl}phenoxy)[1,3]thiazolo[4,5-b]pyridine] was tested. Which IC50 [1] did it give?
The IC50 was 2 nM.

And the IC50 [2]?
Its IC50 is 8 nM.

With `O[C@@H]1CCN(Cc2ccc(Oc3nc4ncccc4s3)cc2)C1` [Example 94, (3R)-1-[4-([1,3]Thiazolo[4,5-b]pyridin-2-yloxy)benzyl]pyrrolidin-3-ol] as the compound, how does the IC50 [1] read?
The IC50 was 4 nM.

And the IC50 [2]?
Its IC50 is 35 nM.

With `NC(=O)N1C[C@H]2CC[C@@H](C1)N2Cc1ccc(Oc2nc3ncccc3s2)cc1` [Example 117, meso-8-[4-([1,3]Thiazolo[4,5-b]pyridin-2-yloxy)benzyl]-3,8-diazabicyclo[3.2.1]octane-3-carboxamide] as the compound, how does the IC50 [1] read?
The IC50 was 9 nM.

And the IC50 [2]?
Its IC50 is 18 nM.

With `NC(=O)N1[C@@H]2CC[C@H]1CN(CCOc1ccc(Oc3nc4ncccc4s3)cc1)C2` [Example 149, meso-3-{2-[4-([1,3]Thiazolo[4,5-b]pyridin-2-yloxy)phenoxy]ethyl}-3,8-diazabicyclo[3.2.1]octane-8-carboxamide] as the compound, how does the IC50 [1] read?
Its IC50 is 63 nM.

What about the IC50 [2] of the same compound?
The IC50 was 180 nM.

What does the source list for `FC1(F)CCN(Cc2ccc(Oc3nc4ncccc4s3)cc2)C1` [Example 93, 2-{4-[(3,3-Difluoropyrrolidin-1-yl)methyl]phenoxy}[1,3]thiazolo[4,5-b]pyridine]?
IC50 [1]: 55 nM; IC50 [2]: 520 nM

Which IC50 [1] does the source give for `Cc1ccnc2nc(Oc3ccc(OCCN4CC5CN(C(=O)C6CCC6)CC5C4)cc3)sc12` (stereo not shown) [Example 146, 2-(4-{2-[5-(Cyclobutylcarbonyl)hexahydropyrrolo[3,4-c]pyrrol-2(1H)-yl]ethoxy}phenoxy)-7-methyl[1,3]thiazolo[4,5-b]pyridine] here?
Its IC50 is 97 nM.

What about the IC50 [2] of the same compound?
The IC50 was 450 nM.

For `CC(=O)N[C@H]1C[C@H]2CC[C@@H](C1)N2Cc1ccc(Oc2nc3cnccc3s2)cc1` [Example 134, meso-N-{(3-endo)-8-[4-([1,3]Thiazolo[4,5-c]pyridin-2-yloxy)benzyl]-8-azabicyclo[3.2.1]oct-3-yl}acetamide], which IC50 [1] is on record?
The IC50 was 38 nM.

What about the IC50 [2] of the same compound?
The IC50 was 180 nM.

Which results are given for `c1ccc(C2CCN(CCOc3ccc(Oc4nc5cccnc5s4)cc3)CC2)nc1` [Example 38, 2-{4-[2-(4-Pyridin-2-ylpiperidin-1-yl)ethoxy]phenoxy}[1,3]thiazolo[5,4-b]pyridine]?
IC50 [1]: 61 nM; IC50 [2]: 950 nM

For `NC(=O)N1CC2CN(CCc3ccc(Oc4nc5ncccc5s4)cc3)CC2C1` (stereo not shown) [Example 74, 5-{2-[4-([1,3]Thiazolo[4,5-b]pyridin-2-yloxy)Phenyl]ethyl}hexahydropyrrolo[3,4-c]pyrrole-2(1H)-carboxamide], which IC50 [1] is on record?
Its IC50 is 6.5 nM.

And the IC50 [2]?
The IC50 was 230 nM.

For `c1ccc(OC2CCN(Cc3ccc(Oc4nc5ncccc5s4)cc3)CC2)nc1` [Example 261, 2-(4-{[4-(Pyridin-2-yloxy)piperidin-1-yl]methyl}phenoxy)[1,3]thiazolo[4,5-b]pyridine], which IC50 [1] is on record?
The IC50 was 7 nM.

And the IC50 [2]?
The IC50 was 38 nM.

Which IC50 [1] does the source give for `FC1CCN(Cc2ccc(Oc3nc4ncccc4s3)cc2)CC1` [Example 96, 2-{4-[(4-Fluoropiperidin-1-yl)methyl]phenoxy}[1,3]thiazolo[4,5-b]pyridine] here?
The IC50 was 24 nM.

And the IC50 [2]?
Its IC50 is 37 nM.

`CC1CCN(Cc2ccc(Oc3nc4ncccc4s3)cc2)CC1` [Example 97, 2-{4-[(4-Methylpiperidin-1-yl)methyl]phenoxy}[1,3]thiazolo[4,5-b]pyridine] was tested. Which IC50 [1] did it give?
The IC50 was 1 nM.

And the IC50 [2]?
The IC50 was 13 nM.

With `OC1(c2ccc(Cl)cc2)CCN(CCOc2ccc(Oc3nc4ncccc4s3)cc2)CC1` [Example 30, 4-(4-Chlorophenyl)-1-{2-[4-([1,3]thiazolo[4,5-b]pyridin-2-yloxy)phenoxy]ethyl}piperidin-4-ol] as the compound, how does the IC50 [1] read?
Its IC50 is 30 nM.

And the IC50 [2]?
The IC50 was 150 nM.

What does the source list for `COCCCN(CCOc1ccc(Oc2nc3ncccc3s2)cc1)C1CC1` [Example 272, N-(3-Methoxypropyl)-N-{2-[4-([1,3]thiazolo[4,5-b]pyridin-2-yloxy)phenoxy]ethyl}cyclopropanamine]?
IC50 [1]: 37 nM; IC50 [2]: 97 nM

What does the source list for `CC(=O)N[C@H]1C[C@H]2CC[C@@H](C1)N2CCOc1ccc(Oc2nc3nccnc3s2)cc1` [Example 148, meso-N-[(3-endo)-8-{2-[4-([1,3]Thiazolo[4,5-b]pyrazin-2-yloxy)phenoxy]ethyl}-8-azabicyclo[3.2.1]oct-3-yl]acetamide]?
IC50 [1]: 43 nM; IC50 [2]: 36 nM

`CC(=O)N1C[C@H]2CC[C@@H](C1)N2Cc1ccc(Oc2nc3ncccc3s2)cc1` [Example 107, meso-2-(4-{[3-Acetyl-3,8-diazabicyclo[3.2.1]oct-8-yl]methyl}phenoxy)[1,3]thiazolo[4,5-b]pyridine] was tested. Which IC50 [1] did it give?
The IC50 was 4 nM.

What about the IC50 [2] of the same compound?
Its IC50 is 3000 nM.

Which IC50 [1] does the source give for `c1ccc(OC2CCN(Cc3ccc(Oc4nc5ncccc5s4)cc3)CC2)cc1` [Example 260, 2-{4-[(4-Phenoxypiperidin-1-yl)methyl]phenoxy}[1,3]thiazolo[4,5-b]pyridine] here?
Its IC50 is 8 nM.

And the IC50 [2]?
The IC50 was 43 nM.

How did the IC50 [1] turn out when `Cc1ccc(SC2CCN(CCOc3ccc(Oc4nc5ncccc5s4)cc3)CC2)cc1` [Example 255, 2-[4-(2-{4-[(4-Methylphenyl)sulfanyl]piperidin-1-yl}ethoxy)phenoxy][1,3]thiazolo[4,5-b]pyridine] was run?
The IC50 was 71 nM.

What about the IC50 [2] of the same compound?
Its IC50 is 1300 nM.

Which results are given for `COc1ccccc1N1CCN(CCOc2ccc(Oc3nc4ncccc4s3)cc2)CC1` [Example 135, 2-(4-{2-[4-(2-Methoxyphenyl)piperazin-1-yl]ethoxy}phenoxy)[1,3]thiazolo[4,5-b]pyridine]?
IC50 [1]: 72 nM; IC50 [2]: 88 nM

What does the source list for `c1cnc(OC2CCN(Cc3ccc(Oc4nc5nccnc5s4)cc3)CC2)nc1` [Example 184, 2-[(4-{[4-(Pyrimidin-2-yloxy)piperidin-1-yl]methyl}phenyl)oxy][1,3]thiazolo[4,5-b]pyrazine]?
IC50 [1]: 18 nM; IC50 [2]: 110 nM

`NC(=O)C1CCN(CCOc2ccc(Oc3nc4nccnc4s3)cc2)CC1` [Example 26, 1-{2-[4-([1,3]Thiazolo[4,5-b]pyrazin-2-yloxy)phenoxy]ethyl}piperidine-4-carboxamide] was tested. Which IC50 [1] did it give?
Its IC50 is 200 nM.

What about the IC50 [2] of the same compound?
Its IC50 is 260 nM.

Which IC50 [1] does the source give for `CS(=O)(=O)N[C@H]1C[C@H]2CC[C@@H](C1)N2Cc1ccc(Oc2nc3ncccc3s2)cc1` [Example 182, meso-N-[(3-endo)-8-{[4-([1,3]Thiazolo[4,5-b]pyridin-2-yloxy)phenyl]methyl}-8-azabicyclo[3.2.1]oct-3-yl]methanesulfonamide] here?
Its IC50 is 1.9 nM.

And the IC50 [2]?
The IC50 was 24 nM.

For `NC(=O)N1CC2CN(CCOc3ccc(Oc4nc5ncccc5s4)cc3)CC2C1` (stereo not shown) [Example 19, 5-{2-[4-([1,3]Thiazolo[4,5-b]pyridin-2-yloxy)phenoxy]ethyl}hexahydropyrrolo[3,4-c]pyrrole-2(1H)-carboxamide], which IC50 [1] is on record?
The IC50 was 17 nM.

And the IC50 [2]?
Its IC50 is 340 nM.

`CCCN(CCc1ccc(Oc2nc3ncccc3s2)cc1)CC1CC1` [Example 57, N-(Cyclopropylmethyl)-N-{2-[4-([1,3]thiazolo[4,5-b]pyridin-2-yloxy)phenyl]ethyl}propan-1-amine] was tested. Which IC50 [1] did it give?
The IC50 was 3 nM.

And the IC50 [2]?
The IC50 was 16 nM.

`c1cnc2nc(Oc3ccc(CN4CCC(N5CCCCC5)CC4)cc3)sc2c1` [Example 256, 1′-[4-([1,3]Thiazolo[4,5-b]pyridin-2-yloxy)benzyl]-1,4′-bipiperidine] was tested. Which IC50 [1] did it give?
The IC50 was 87 nM.

And the IC50 [2]?
Its IC50 is 178 nM.
